Starred links: 1 amine or outer side, 2 acyl side, 3 side chain; linkers in the order of their positions; H or OH if unused. Non-standard residues stand in square brackets, D forms with d. Residues, ends and D or L forms follow the SMILES beside them. *: point of attachment. Desaminohistidyl = O=C(CCc1c[nH]cn1)*; X1 = c1ccc(C(CCN*)c2ccccc2)cc1; NHPhenethyl = c1ccc(CCN*)cc1; X2 = O=C(C1CCCC1N[*:1])[*:2]; Isovaleryl = CC(C)CC(=O)*; NHBn = c1ccc(CN*)cc1
Each compound was assayed against Peptidyl-prolyl cis-trans isomerase A (Homo sapiens, UniProt P62937) (assay: In vitro inhibition of human Cyclophilin A/protein interaction.).
Sequence of Peptidyl-prolyl cis-trans isomerase A (P62937 whole entry): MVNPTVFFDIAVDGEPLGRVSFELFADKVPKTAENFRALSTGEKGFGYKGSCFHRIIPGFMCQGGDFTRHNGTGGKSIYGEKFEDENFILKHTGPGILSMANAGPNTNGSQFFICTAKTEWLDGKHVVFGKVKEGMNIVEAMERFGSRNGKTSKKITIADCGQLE

Row | Compound | IC50 [µM]
1 | H-HAGPIA-OH | 2000
2 | CC[C@H](C)[C@H](NC(=O)[C@@H]1CCCN1C(=O)CNC(=O)[C@H](C)NC(=O)[C@H](Cc1cnc[nH]1)NC(=O)[C@@H](NC(C)=O)C(C)C)C(=O)NCCC(c1ccccc1)c1ccccc1 (Ac-VHAGPI-X1) | 365
3 | CC[C@H](C)[C@H](NC(=O)[C@@H]1CCCN1C(=O)CNC(=O)[C@H](C)NC(=O)CCc1cnc[nH]1)C(=O)N[C@@H](C)C(N)=O (Desaminohistidyl-AGPIA-NH2) | 2600
4 | CC(=O)N[C@H](C(=O)N[C@@H](Cc1c[nH]cn1)C(=O)N[C@@H](C)C(=O)NCC(=O)N1CCC[C@H]1C(=O)NC1CCCC1C(=O)N[C@@H](C)C(N)=O)C(C)C (some centres undefined) (Ac-VHAGP[X2]A-NH2) | 680
5 | CC(=O)N[C@H](C(=O)N[C@@H](Cc1c[nH]cn1)C(=O)N[C@@H](C)C(=O)NCC(=O)N1CCC[C@@H]1C(=O)N[C@H](C(=O)N[C@@H](C)C(N)=O)c1ccccc1)C(C)C | 970
6 | CC(=O)N[C@H](C(=O)N[C@@H](Cc1c[nH]cn1)C(=O)N[C@@H](C)C(=O)NCC(=O)N1CCC[C@@H]1C(=O)N[C@@H](C(=O)N[C@@H](C)C(N)=O)c1ccccc1)C(C)C | 820

These reach a lower IC50. Values come first.

Row | IC50 [µM] | Compound
7 | 165 | CC[C@H](C)[C@H](NC(=O)[C@@H]1CCCN1C(=O)CNC(=O)[C@H](C)NC(=O)[C@H](Cc1cnc[nH]1)NC(=O)CC(C)C)C(=O)N[C@@H](C)C(N)=O (Isovaleryl-HAGPIA-NH2)
8 | 325 | CC[C@H](C)[C@H](NC(=O)[C@@H]1CCCN1C(=O)CNC(=O)[C@H](C)NC(=O)[C@H](Cc1c[nH]cn1)NC(=O)[C@@H](NC(C)=O)C(C)C)C(=O)NCCc1ccccc1 (Ac-VHAGPI-NHPhenethyl)
9 | 90 | CC(C)CC(=O)N[C@@H](Cc1cnc[nH]1)C(=O)N[C@@H](C)C(=O)NCC(=O)N1CCC[C@H]1C(=O)NC1CCCC1C(=O)NCc1ccccc1 (some centres undefined) (Isovaleryl-HAGP[X2]-NHBn)

Source: ChEMBL document CHEMBL1135656, “Molecular docking and 3D-QSAR studies on gag peptide analogue inhibitors interacting with human cyclophilin A” (J Med Chem, 2002)
